# Measured values published in ChEMBL document CHEMBL5154811, “Discovery of SPH5030, a Selective, Potent, and Irreversible Tyrosine Kinase Inhibitor for HER2-Amplified and HER2-Mutant Cancer Treatment” (J Med Chem, 2022).
# What was measured:
# [1] = Antiproliferative activity against human KM12-Luc cells assessed as cell growth inhibition incubated for 72 hrs by Celltiter-Glo assay; format: functional, cell-based
# [2] = biological target: Receptor tyrosine-protein kinase erbB-2 (Homo sapiens, UniProt P04626, D769H); assay: Inhibition of HER2 D769H mutant (unknown origin) incubated for 120 mins in presence of 33P-ATP by P81 ion exchange cellulose chromatography
# NCI-N87 [3] = assay: Antiproliferative activity against human NCI-N87 cells assessed as inhibition of cell growth incubated for 72 hrs by Celltiter-Glo assay; format: functional, cell-based; details: NCI-N87, 72 h
# BaF3 [4] = assay: Antitumor activity against mouse BaF3 cells harbouring HER2 A775_G776insYVMA mutant xenografted in BALB/c nude mouse assessed as tumor growth inhibition at 20 mg/kg, po qd measured for 13 days relative to control; format: functional; details: BaF3, 312 h, time 13 day, read-out: TGI
# [5] = Half life in ICR mouse at 3 mg/kg, iv measured upto 1440 mins by LC/MS/MS analysis; format: ADME, organism-based; details: in vivo
# [6] = biological target: Receptor tyrosine-protein kinase erbB-2 (Homo sapiens, UniProt P04626, D769Y); assay: Inhibition of HER2 D769Y mutant (unknown origin) incubated for 120 mins in presence of 33P-ATP by P81 ion exchange cellulose chromatography
# BaF3 [7] = assay: Antitumor activity against mouse BaF3 cells harbouring HER2 A775_G776insYVMA mutant xenografted in BALB/c nude mouse assessed as tumor growth inhibition by measuring relative tumor growth at 40 mg/kg, po qd for 13 days by caliper method relative to control; format: functional; details: time 13 day
# [8] = Oral bioavailability in Sprague-Dawley rat at 10 mg/kg measured upto 1440 mins by LC/MS/MS analysis; format: ADME, organism-based; details: in vivo
# BaF3 [9] = assay: Antitumor activity against mouse BaF3 cells harbouring HER2 A775_G776insYVMA mutant xenografted in BALB/c nude mouse assessed as tumor growth inhibition by measuring relative tumor growth at 20 mg/kg, po qd for 13 days by caliper method relative to control; format: functional; details: time 13 day
# NCI-N87 [10] = assay: Antitumor activity against human NCI-N87 cells xenografted in BALB/c nude mouse assessed as tumor growth inhibition by measuring relative tumor growth at 20 mg/kg/day, po administered once daily for 21 days by caliper method relative to control; format: functional; details: time 21 day
# NCI-N87 [11] = assay: Antitumor activity against human NCI-N87 cells xenografted in BALB/c nude mouse assessed as tumor growth inhibition by measuring relative tumor growth at 10 mg/kg/day, po administered once daily for 21 days by caliper method relative to control; format: functional; details: time 21 day
# COLO-678 = assay: Antiproliferative activity against human COLO-678 cells assessed as cell growth inhibition incubated for 72 hrs by Celltiter-Glo assay; format: functional, cell-based; details: COLO-678, 72 h
# BT-474 [12] = assay: Antitumor activity against human BT-474 cells xenografted in BALB/c nude mouse assessed as tumor growth inhibition by measuring relative tumor growth at 20 mg/kg/day, po administered once daily for 21 days by caliper method relative to control; format: functional; details: time 21 day
# NUGC-4 = assay: Antiproliferative activity against human NUGC-4 cells assessed as cell growth inhibition incubated for 72 hrs by Celltiter-Glo assay; format: functional, cell-based; details: NUGC-4, 72 h
# [13] = AUC (0 to t) in Sprague-Dawley rat at 10 mg/kg, po measured upto 1440 mins by LC/MS/MS analysis; format: ADME, organism-based; design: dose 10 mg/kg, time < 1440 min, route po; details: in vivo
# [14] = Clearance in cynomolgus monkey at 1 mg/kg, iv measured upto 1440 mins by LC/MS/MS analysis; format: ADME, organism-based, Macaca fascicularis; details: in vivo
# MFE-280 = assay: Antiproliferative activity against human MFE-280 cells assessed as cell growth inhibition incubated for 72 hrs by Celltiter-Glo assay; format: functional, cell-based; details: MFE-280, 72 h
# [15] = Clearance in ICR mouse at 3 mg/kg, iv measured upto 1440 mins by LC/MS/MS analysis; format: ADME, organism-based; details: in vivo
# [16] = Half life in Sprague-Dawley rat at 3 mg/kg, iv measured upto 1440 mins by LC/MS/MS analysis; format: ADME, organism-based; details: in vivo
# [17] = Toxicity in BALB/c nude mouse xenografted with mouse BaF3 cells harbouring HER2 A775_G776insYVMA mutant assessed as mortality at 10 to 40 mg/kg, po qd for 13 days; format: organism-based; details: in vivo, 312 h, dose 10-40 mg/kg, time 13 day
# [18] = Oral bioavailability in ICR mouse at 10 mg/kg measured upto 1440 mins by LC/MS/MS analysis; format: ADME, organism-based; details: in vivo
# [19] = Tmax in Sprague-Dawley rat at 10 mg/kg, po measured upto 1440 mins by LC/MS/MS analysis; format: ADME, organism-based; details: in vivo
# [20] = Cmax in Sprague-Dawley rat at 10 mg/kg, po measured upto 1440 mins by LC/MS/MS analysis; format: ADME, organism-based; design: time < 1440 min, dose 10 mg/kg, route po; details: in vivo
# BT-474 [21] = assay: Antiproliferative activity against human BT-474 cells assessed as inhibition of cell growth incubated for 72 hrs by Celltiter-Glo assay; format: functional, cell-based; details: BT-474, 72 h
# BaF3 [22] = assay: Antitumor activity against mouse BaF3 cells harbouring HER2 A775_G776insYVMA mutant xenografted in BALB/c nude mouse assessed as tumor growth inhibition by measuring relative tumor growth at 10 mg/kg, po qd for 13 days by caliper method relative to control; format: functional; details: time 13 day
# MDA-MB-468 = assay: Antiproliferative activity against human MDA-MB-468 cells overexpressing wild type EGFR assessed as cell growth inhibition incubated for 72 hrs by Celltiter-Glo assay; format: functional, cell-based; details: MDA-MB-468, 72 h
# SK-BR-3 = assay: Antiproliferative activity against human SK-BR-3 cells overexpressing wild type HER2 assessed as cell growth inhibition incubated for 72 hrs by Celltiter-Glo assay; format: functional, cell-based; details: SK-BR-3, 72 h
# BT-474 [23] = assay: Antitumor activity against human BT-474 cells xenografted in BALB/c nude mouse assessed as tumor growth inhibition at 20 mg/kg/day, po administered once daily for 21 days relative to control; format: functional; details: BT-474, 504 h, time 21 day, read-out: TGI
# [24] = Metabolic stability in human liver microsomes assessed as intrinsic clearance at 1 uM preincubated for 5 mins followed by NADPH addition by LC-MS/MS analysis; format: ADME, Microsome; details: read-out: CLH
# [25] = Toxicity in BALB/c nude mouse xenografted with human BT-474 cells assessed as mortality at 5 to 40 mg/kg, po administered once daily for 21 days; format: organism-based; details: in vivo, 504 h, dose 5-40 mg/kg, time 21 day
# NCI-H441 = assay: Antiproliferative activity against human NCI-H441 cells assessed as cell growth inhibition incubated for 72 hrs by Celltiter-Glo assay; format: functional, cell-based; details: NCI-H441, 72 h
# [26] = AUC (0 to t) in cynomolgus monkey at 15 mg/kg, po measured upto 1440 mins by LC/MS/MS analysis; format: ADME, organism-based, Macaca fascicularis; design: time < 1440 min, dose 15 mg/kg, route po; details: in vivo
# [27] = Toxicity in BALB/c nude mouse xenografted with human BT-474 cells assessed as reduction in body weight at 5 to 40 mg/kg, po administered once daily for 21 days; format: organism-based; details: in vivo, 504 h, dose 5-40 mg/kg, time 21 day
# [28] = biological target: Receptor tyrosine-protein kinase erbB-2 (Homo sapiens, UniProt P04626); assay: Inhibition of wild type human GST-tagged HER2 (676 to end residues) expressed in baculovirus infected Sf9 cells incubated for 30 mins in presence of ATP by HTRF analysis
# Chain of Receptor tyrosine-protein kinase erbB-2 (Homo sapiens, UniProt P04626) (P04626 whole entry): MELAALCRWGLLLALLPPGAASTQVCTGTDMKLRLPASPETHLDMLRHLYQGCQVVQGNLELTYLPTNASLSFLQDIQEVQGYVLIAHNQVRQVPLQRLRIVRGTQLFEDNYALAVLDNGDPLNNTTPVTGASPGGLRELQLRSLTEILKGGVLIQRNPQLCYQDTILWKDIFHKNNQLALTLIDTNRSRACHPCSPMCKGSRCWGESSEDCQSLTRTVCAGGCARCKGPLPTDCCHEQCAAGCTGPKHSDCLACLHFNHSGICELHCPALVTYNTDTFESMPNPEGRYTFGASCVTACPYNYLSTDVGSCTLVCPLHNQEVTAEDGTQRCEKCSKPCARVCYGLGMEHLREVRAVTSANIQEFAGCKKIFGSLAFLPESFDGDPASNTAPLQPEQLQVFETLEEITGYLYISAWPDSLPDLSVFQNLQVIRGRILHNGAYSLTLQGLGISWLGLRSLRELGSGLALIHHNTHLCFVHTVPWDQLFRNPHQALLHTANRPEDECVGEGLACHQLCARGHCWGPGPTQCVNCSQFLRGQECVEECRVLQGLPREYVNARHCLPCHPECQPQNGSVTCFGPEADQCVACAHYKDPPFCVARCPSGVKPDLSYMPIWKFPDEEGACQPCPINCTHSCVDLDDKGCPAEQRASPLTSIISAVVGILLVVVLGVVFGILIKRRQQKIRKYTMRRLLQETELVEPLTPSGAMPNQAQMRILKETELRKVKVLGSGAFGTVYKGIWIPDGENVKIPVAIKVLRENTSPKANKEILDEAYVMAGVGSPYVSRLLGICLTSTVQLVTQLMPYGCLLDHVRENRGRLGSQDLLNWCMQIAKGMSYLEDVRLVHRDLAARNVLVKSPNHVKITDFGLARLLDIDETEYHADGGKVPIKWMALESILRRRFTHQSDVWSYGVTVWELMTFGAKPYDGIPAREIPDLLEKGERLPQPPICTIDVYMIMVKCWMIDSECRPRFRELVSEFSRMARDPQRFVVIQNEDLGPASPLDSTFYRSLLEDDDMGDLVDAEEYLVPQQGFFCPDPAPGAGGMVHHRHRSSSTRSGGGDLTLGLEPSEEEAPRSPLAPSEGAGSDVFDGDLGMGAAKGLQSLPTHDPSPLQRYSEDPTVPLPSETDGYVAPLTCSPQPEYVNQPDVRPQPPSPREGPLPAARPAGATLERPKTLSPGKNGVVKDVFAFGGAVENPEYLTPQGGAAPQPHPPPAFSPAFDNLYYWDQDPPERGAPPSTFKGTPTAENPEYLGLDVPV
# Chain of Receptor tyrosine-protein kinase erbB-2 (Homo sapiens, UniProt P04626, D769Y) (P04626 23-1255 D769Y limits assumed): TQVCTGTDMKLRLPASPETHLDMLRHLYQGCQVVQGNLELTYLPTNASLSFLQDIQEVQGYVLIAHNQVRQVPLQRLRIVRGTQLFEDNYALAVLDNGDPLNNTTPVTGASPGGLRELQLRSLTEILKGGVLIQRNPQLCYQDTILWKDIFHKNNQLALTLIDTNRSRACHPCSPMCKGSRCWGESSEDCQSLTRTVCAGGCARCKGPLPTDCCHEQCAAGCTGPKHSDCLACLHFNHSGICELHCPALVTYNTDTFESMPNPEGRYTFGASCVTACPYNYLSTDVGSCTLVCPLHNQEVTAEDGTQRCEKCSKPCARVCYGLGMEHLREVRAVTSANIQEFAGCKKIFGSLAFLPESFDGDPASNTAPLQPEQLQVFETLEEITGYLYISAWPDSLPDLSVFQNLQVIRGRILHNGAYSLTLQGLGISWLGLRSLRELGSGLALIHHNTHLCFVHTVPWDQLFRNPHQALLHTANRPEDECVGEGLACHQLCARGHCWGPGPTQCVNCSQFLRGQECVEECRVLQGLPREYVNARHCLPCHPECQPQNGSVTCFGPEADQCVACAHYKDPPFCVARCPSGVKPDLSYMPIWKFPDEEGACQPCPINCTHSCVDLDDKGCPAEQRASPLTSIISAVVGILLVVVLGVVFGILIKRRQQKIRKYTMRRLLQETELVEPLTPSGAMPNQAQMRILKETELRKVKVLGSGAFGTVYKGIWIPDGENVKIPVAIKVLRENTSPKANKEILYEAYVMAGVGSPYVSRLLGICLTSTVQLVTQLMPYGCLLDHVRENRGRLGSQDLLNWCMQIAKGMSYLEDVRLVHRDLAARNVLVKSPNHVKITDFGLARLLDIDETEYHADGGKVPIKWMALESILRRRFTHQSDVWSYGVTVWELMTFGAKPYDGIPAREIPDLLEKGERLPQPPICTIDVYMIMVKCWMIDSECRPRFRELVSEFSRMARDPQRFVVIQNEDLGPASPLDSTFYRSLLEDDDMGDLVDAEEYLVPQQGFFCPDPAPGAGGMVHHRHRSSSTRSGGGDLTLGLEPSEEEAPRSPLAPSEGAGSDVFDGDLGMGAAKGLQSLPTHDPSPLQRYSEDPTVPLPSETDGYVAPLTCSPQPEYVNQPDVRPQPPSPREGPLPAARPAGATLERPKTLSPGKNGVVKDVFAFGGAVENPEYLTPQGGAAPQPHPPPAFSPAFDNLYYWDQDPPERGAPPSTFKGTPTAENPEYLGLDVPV
# Chain of Receptor tyrosine-protein kinase erbB-2 (Homo sapiens, UniProt P04626, D769H) (P04626 23-1255 D769H limits assumed): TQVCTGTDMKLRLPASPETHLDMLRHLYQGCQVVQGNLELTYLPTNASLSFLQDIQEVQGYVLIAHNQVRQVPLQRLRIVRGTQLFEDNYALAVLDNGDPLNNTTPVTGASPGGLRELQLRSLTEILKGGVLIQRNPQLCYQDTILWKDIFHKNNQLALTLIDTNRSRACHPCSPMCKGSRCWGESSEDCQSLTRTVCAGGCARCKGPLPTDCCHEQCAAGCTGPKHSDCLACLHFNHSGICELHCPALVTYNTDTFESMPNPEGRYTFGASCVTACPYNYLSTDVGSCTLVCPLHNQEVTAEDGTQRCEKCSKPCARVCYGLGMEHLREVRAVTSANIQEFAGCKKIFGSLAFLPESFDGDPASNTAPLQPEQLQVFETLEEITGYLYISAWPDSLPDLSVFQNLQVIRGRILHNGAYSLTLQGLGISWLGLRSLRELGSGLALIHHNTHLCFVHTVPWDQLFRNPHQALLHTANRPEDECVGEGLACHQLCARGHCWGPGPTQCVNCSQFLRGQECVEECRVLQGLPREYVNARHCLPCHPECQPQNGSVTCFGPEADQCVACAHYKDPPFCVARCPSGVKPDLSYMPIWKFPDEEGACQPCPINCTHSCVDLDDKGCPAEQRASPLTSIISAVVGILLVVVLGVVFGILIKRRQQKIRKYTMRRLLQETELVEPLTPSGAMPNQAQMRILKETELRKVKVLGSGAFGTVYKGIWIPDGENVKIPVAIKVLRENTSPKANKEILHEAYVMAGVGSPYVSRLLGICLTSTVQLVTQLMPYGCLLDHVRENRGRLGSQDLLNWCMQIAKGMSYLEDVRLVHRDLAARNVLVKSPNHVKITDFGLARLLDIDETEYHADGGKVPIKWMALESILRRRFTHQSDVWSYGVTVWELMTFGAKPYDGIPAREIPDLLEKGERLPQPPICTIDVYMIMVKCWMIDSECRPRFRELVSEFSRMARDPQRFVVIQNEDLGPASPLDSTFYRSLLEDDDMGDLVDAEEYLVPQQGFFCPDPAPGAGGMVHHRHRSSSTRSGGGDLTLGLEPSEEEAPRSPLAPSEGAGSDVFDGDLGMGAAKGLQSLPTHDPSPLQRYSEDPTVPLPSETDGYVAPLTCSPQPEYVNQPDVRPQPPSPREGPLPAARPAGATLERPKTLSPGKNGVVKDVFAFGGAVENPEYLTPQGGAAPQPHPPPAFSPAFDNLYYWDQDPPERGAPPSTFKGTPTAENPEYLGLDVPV
smiles,measurement,setting,value
CCOc1cc2ncnc(Nc3ccc(Oc4cc5nncn5cn4)c(C)c3)c2cc1NC(=O)/C(F)=C/[C@H]1CCCN1C,IC50,[1],3.6 µM
same,IC50,[2],0.00042 µM
same,IC50,NCI-N87 [3],0.00109 µM
same,inhibition in vivo at 20 mg/kg,BaF3 [4],107%
same,half-life,[5],3.76 h
same,IC50,[6],0.00043 µM
same,T/C,BaF3 [7],2%
same,bioavailability,[8],71.3%
same,T/C,BaF3 [9],6.89%
same,T/C,NCI-N87 [10],2.03%
same,T/C,NCI-N87 [11],2.6%
same,IC50,COLO-678,6.07 µM
same,T/C,BT-474 [12],7.68%
same,IC50,NUGC-4,1.22 µM
same,AUC(0-t) at 24 h,[13],5470 ng·h/mL
same,clearance,[14],10.2 mL/min/kg
same,IC50,MFE-280,3.97 µM
same,clearance,[15],11.7 mL/min/kg
same,half-life,[16],4.56 h
same,Activity,[17],Non-Toxic
same,bioavailability,[18],87.7%
same,Tmax,[19],3.33 h
same,Cmax,[20],760 ng/mL
same,IC50,BT-474 [21],0.00201 µM
same,T/C,BaF3 [22],16.66%
same,IC50,MDA-MB-468,2.98 µM
same,IC50,SK-BR-3,0.0201 µM
same,inhibition in vivo at 20 mg/kg/day,BT-474 [23],123%
same,microsomal CLint at 1 µM,[24],2.5 µL/min/mg
same,Activity,[25],Non-Toxic
same,IC50,NCI-H441,4.26 µM
same,AUC(0-t) at 24 h,[26],10400 ng·h/mL
same,Activity,[27],Non-Toxic
same,IC50,[28],0.00351 µM
